The values below come from patent publication US20250376461A1, “INDAZOLE DERIVATIVES FOR TREATING TRPM3-MEDIATED DISORDERS” (Katholieke Universiteit Leuven, priority 2022, published 2025).

SMILES strings stand for the structures.

The target in the assay is T1, mouse TRPM3α2 (mTRPM3) ion channel (Mus musculus, UniProt J9SQF3).
T1 construct: expressed in transfected cells; host or cells: flip-in HEK293
T1 sequence (J9SQF3 1-1709 isoform J9SQF3-12): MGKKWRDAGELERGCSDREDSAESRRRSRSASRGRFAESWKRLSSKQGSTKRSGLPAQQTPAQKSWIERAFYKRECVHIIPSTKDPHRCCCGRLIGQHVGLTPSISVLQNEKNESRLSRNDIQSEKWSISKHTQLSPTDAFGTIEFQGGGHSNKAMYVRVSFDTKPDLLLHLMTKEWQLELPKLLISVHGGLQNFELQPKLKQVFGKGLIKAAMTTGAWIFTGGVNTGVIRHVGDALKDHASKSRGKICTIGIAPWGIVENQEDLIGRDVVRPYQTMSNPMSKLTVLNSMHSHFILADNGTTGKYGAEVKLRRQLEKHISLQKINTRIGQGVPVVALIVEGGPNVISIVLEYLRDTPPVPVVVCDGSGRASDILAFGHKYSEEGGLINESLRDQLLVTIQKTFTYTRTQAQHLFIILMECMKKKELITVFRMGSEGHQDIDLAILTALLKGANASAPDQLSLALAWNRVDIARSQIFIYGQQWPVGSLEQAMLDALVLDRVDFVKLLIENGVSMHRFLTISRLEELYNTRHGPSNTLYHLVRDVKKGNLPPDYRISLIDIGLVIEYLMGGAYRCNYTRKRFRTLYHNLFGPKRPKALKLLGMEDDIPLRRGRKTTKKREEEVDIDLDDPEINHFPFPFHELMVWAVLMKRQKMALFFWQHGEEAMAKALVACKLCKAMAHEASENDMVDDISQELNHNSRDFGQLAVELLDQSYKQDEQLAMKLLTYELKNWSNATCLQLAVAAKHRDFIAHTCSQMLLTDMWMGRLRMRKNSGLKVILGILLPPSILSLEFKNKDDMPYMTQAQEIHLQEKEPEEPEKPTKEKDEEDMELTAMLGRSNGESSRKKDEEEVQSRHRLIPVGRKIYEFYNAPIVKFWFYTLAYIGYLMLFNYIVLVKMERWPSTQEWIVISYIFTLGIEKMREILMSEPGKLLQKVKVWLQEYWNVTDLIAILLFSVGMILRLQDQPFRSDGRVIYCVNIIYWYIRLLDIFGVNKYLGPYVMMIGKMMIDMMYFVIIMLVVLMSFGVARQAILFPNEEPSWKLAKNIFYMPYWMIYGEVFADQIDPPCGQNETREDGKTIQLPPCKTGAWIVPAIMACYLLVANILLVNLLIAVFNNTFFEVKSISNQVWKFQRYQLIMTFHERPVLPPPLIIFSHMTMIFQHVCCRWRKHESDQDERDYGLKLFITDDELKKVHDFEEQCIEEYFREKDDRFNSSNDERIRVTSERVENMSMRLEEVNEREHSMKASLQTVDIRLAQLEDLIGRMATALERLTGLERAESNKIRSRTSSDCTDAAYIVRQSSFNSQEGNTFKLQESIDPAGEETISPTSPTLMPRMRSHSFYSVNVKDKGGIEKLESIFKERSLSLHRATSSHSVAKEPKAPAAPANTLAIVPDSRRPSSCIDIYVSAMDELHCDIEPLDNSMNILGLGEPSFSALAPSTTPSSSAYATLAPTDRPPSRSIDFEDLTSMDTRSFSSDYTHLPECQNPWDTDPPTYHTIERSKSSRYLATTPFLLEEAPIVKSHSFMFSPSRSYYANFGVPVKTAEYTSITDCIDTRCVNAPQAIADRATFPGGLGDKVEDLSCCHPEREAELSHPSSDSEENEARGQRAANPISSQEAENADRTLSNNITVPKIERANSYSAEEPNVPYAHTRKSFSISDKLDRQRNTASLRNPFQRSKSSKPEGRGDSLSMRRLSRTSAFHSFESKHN
Kind of assay: TRPM3 ion channel driven Ca2+ uptake, Fluo-4 AM assay, mTRPM3alpha2 overexpressing flip-in HEK293 cells stimulated with pregnenolone sulfate (50 μM). The conditions noted are these: mTRPM3 overexpressing HEK293 cells stimulated with pregnenolone sulfate (50 μM), activity ranges A, B, C. The class given is cell-based. Put shortly:
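Ca2+ influx via mouse TRPM3α2 was opened with pregnenolone sulfate (50 μM) and tracked by Fluo-4 AM fluorescence at 485/535 nm, read directly after adding about 2000 stably transfected HEK293 cells per well to compound. IC50 values come from percent inhibition scaled to vehicle and positive-control inhibitor signals.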
Turning to `C[C@@H](O)[C@H](NC(=O)c1c2cc(OCC3CC3)ccc2nn1C)C(N)=O` [Cpd 138, (2S,3R)-2-{[5-(cyclopropylmethoxy)-2-methyl-2H-indazol-3-yl]formamido}-3-hydroxybutanamide], the concentration for half-maximal inhibition (IC50) (in general, the concentration that inhibits the measured activity by half) fell in the range of 1 to 20 µM.
As for `Cn1nc2ccc(OCc3ccccc3)cc2c1C(=O)NC1CCN(CC(F)(F)F)C1` (centres unmarked) [Cpd 060, 5-(benzyloxy)-2-methyl-N-[1-(2,2,2-trifluoroethyl)pyrrolidin-3-yl]-2H-indazole-3-carboxamide], the figure is 1 to 20 µM; as for `Cn1nc2ccc(OCc3cccnc3C(F)(F)F)cc2c1C(=O)NC1CCNCC1(F)F` (single isomer, unassigned) [Cpd 003 - En1], less than 1 µM.
As for `Cn1nc2ccc(OCc3ccccn3)cc2c1C(=O)NC(CCO)c1ccc(F)cc1` (single isomer, unassigned) [Cpd 223 - En2], the figure is greater than 20 µM.
Under `Cc1ncsc1COc1ccc2nn(C)c(C(=O)NCC3CCC(=O)N3)c2c1` (centres unmarked) [Cpd 063, 2-methyl-5-[(4-methyl-1,3-thiazol-5-yl)methoxy]-N-[(5-oxopyrrolidin-2-yl)methyl]-2H-indazole-3-carboxamide] stands 1 to 20 µM; under `Cn1nc2ccc(OCc3ccccc3F)cc2c1C(=O)O` [Cpd 198, 5-[(2-fluorophenyl)methoxy]-2-methyl-2H-indazole-3-carboxylic acid], 1 to 20 µM; under `Cn1nc2ccc(OCc3ccccn3)cc2c1C(=O)NC1(CO)CC1(F)F` (single isomer, unassigned) [Cpd 235 - En1, N-[2,2-difluoro-1-(hydroxymethyl)cyclopropyl]-2-methyl-5-[(pyridin-2-yl)methoxy]-2H-indazole-3-carboxamide], greater than 20 µM.
Consider `Cc1ncc(COc2ccc3nn(C)c(C(=O)NC4(CO)CC4)c3c2)s1` [Cpd 114, N-[1-(hydroxymethyl)cyclopropyl]-2-methyl-5-[(2-methyl-1,3-thiazol-5-yl)methoxy]-2H-indazole-3-carboxamide], for which the IC50 was greater than 20 µM.
Under `Cn1nccc1COc1ccc2nn(C)c(C(=O)NCC3CCC(=O)N3)c2c1` (centres unmarked) [Cpd 069, 2-methyl-5-[(1-methyl-1H-pyrazol-5-yl)methoxy]-N-[(5-oxopyrrolidin-2-yl)methyl]-2H-indazole-3-carboxamide] stands greater than 20 µM; under `C[C@@H](NC(=O)c1c2cc(OCc3ccccn3)ccc2nn1C)C(N)=O` [Cpd 083, (2R)-2-({2-methyl-5-[(pyridin-2-yl)methoxy]-2H-indazol-3-yl}formamido)propanamide], 1 to 20 µM; under `Cc1ncsc1COc1ccc2nn(C)c(C(=O)NC3CCN(CCO)C3=O)c2c1` (centres unmarked) [Cpd 037, N-[1-(2-hydroxyethyl)-2-oxopyrrolidin-3-yl]-2-methyl-5-[(4-methyl-1,3-thiazol-5-yl)methoxy]-2H-indazole-3-carboxamide], greater than 20 µM.
`CNC(=O)C1(NC(=O)c2c3cc(OCc4cccnc4C(F)(F)F)ccc3nn2C)CCOC1` (single isomer, unassigned) [Cpd 183 - En1, 2-methyl-N-[3-(methylcarbamoyl)oxolan-3-yl]-5-{[2-(trifluoromethyl)pyridin-3-yl]methoxy}-2H-indazole-3-carboxamide] had an IC50 of less than 1 µM.
As for `Cn1nc2ccc(OCc3cccnc3)cc2c1C(=O)NC1(C(N)=O)CCOC1` (single isomer, unassigned) [Cpd 168 - En1], the figure is 1 to 20 µM; as for `Cn1nc2ccc(OCc3ccccn3)cc2c1C(=O)NC(CO)c1ccc(F)cc1` (single isomer, unassigned) [Cpd 220 - En2], greater than 20 µM; as for `Cn1nc2ccc(OCc3ccccn3)cc2c1C(=O)NC1(CO)CCNC1=O` (single isomer, unassigned) [Cpd 253 - En1], less than 1 µM.
As for `Cn1nc2ccc(OCc3ccccn3)cc2c1C(=O)NC(C)(CO)CC(F)(F)F` (single isomer, unassigned) [Cpd 255 - En1, 2-methyl-5-[(pyridin-2-yl)methoxy]-N-(4,4,4-trifluoro-1-hydroxy-2-methylbutan-2-yl)-2H-indazole-3-carboxamide], the figure is 1 to 20 µM; as for `Cn1nc2ccc(OCc3ccccn3)cc2c1C(=O)NC(CO)C1CCOCC1` (single isomer, unassigned) [Cpd 241 - En1], 1 to 20 µM; as for `Cn1nc2ccc(OCc3ccccn3)cc2c1C(=O)NC1CCNCC1(F)F` (single isomer, unassigned) [Cpd 128 - En1], 1 to 20 µM.
As for `Cn1nc2ccc(OCc3ccccn3)cc2c1C(=O)NC1(CC(F)F)CCCNC1` (single isomer, unassigned) [Cpd 248 - En2], the figure is 1 to 20 µM; as for `Cc1ncc(COc2ccc3nn(C)c(C(=O)NC(C)(CO)C(N)=O)c3c2)s1` (single isomer, unassigned) [Cpd 157 - En2, 3-hydroxy-2-methyl-2-({2-methyl-5-[(2-methyl-1,3-thiazol-5-yl)methoxy]-2H-indazol-3-yl}formamido)propanamide], less than 1 µM; as for `Cn1cc(COc2ccc3nn(C)c(C(=O)NC(C)(CO)C(N)=O)c3c2)cn1` (centres unmarked) [Cpd 156, 3-hydroxy-2-methyl-2-({2-methyl-5-[(1-methyl-1H-pyrazol-4-yl)methoxy]-2H-indazol-3-yl}formamido)propanamide], 1 to 20 µM.
The compound `Cn1nccc1COc1ccc2nn(C)c(C(=O)NC(C)(CO)C(N)=O)c2c1` (single isomer, unassigned) [Cpd 154 - En1] showed an IC50 greater than 20 µM.
Turning to `C=C(Nc1cc(C(F)(F)F)cnc1O)c1c2cc(OCc3ccccn3)ccc2nn1C` [Cpd 218, 3-[(1-{2-methyl-5-[(pyridin-2-yl)methoxy]-2H-indazol-3-yl}ethenyl)amino]-5-(trifluoromethyl)pyridin-2-ol], the IC50 was greater than 20 µM.
As for `Cn1nc2ccc(OCc3ccccc3F)cc2c1C(=O)NC1(CO)CCNC1=O` (single isomer, unassigned) [Cpd 171 -En1], the figure is less than 1 µM; as for `Cc1ncsc1COc1ccc2nn(C)c(C(=O)NC3(CCO)CCC3)c2c1` [Cpd 048, N-[1-(2-hydroxyethyl)cyclobutyl]-2-methyl-5-[(4-methyl-1,3-thiazol-5-yl)methoxy]-2H-indazole-3-carboxamide], 1 to 20 µM.
`Cc1ncsc1COc1ccc2nn(C)c(C(=O)NC3CCNCC3(F)F)c2c1` (single isomer, unassigned) [Cpd 132 - En1]: the IC50 lay in the range of 1 to 20 µM.
`CC1CC(COc2ccc3nn(C)c(C(=O)NC(C)(CO)C(N)=O)c3c2)C1` (centres unmarked) [Cpd 196, 3-hydroxy-2-methyl-2-({2-methyl-5-[(3-methylcyclobutyl)methoxy]-2H-indazol-3-yl}formamido)propenamide] came in with an IC50 of 1 to 20 µM.
The compound `Cc1ccc(COc2ccc3nn(C)c(C(=O)NC(C)(CO)C(N)=O)c3c2)cn1` (single isomer, unassigned) [Cpd 174 - En1] came in with an IC50 of 1 to 20 µM.
`Cn1nc2ccc(OCc3cccnc3C(F)(F)F)cc2c1C(=O)NC(C)(C)CO` [Cpd 076, N-(1-hydroxy-2-methylpropan-2-yl)-2-methyl-5-{[2-(trifluoromethyl)pyridin-3-yl]methoxy}-2H-indazole-3-carboxamide] showed an IC50 of 1 to 20 µM.
As to `Cc1ncc(COc2ccc3nn(C)c(C(=O)NC4(CO)CCC4)c3c2)s1` [Cpd 108, N-[1-(hydroxymethyl)cyclobutyl]-2-methyl-5-[(2-methyl-1,3-thiazol-5-yl)methoxy]-2H-indazole-3-carboxamide], the IC50 lay within 1 to 20 µM.
Regarding `Cn1nc2ccc(OCc3ccccc3)cc2c1C(=O)NC1CNCC1(F)F` (single isomer, unassigned) [Cpd 002 - En1, 5-(benzyloxy)-N-(4,4-difluoropyrrolidin-3-yl)-2-methyl-2H-indazole-3-carboxamide], the IC50 is greater than 20 µM.
Compound `Cn1nc2ccc(OCc3cccnc3C(F)(F)F)cc2c1C(=O)O` [Cpd 122, 2-methyl-5-((2-(trifluoromethyl)pyridin-3-yl)methoxy)-2H-indazole-3-carboxylic acid] showed an IC50 of 1 to 20 µM.
As for `Cc1ncsc1COc1ccc2nn(C)c(C(=O)NC(C)(CO)C(N)=O)c2c1` (single isomer, unassigned) [Cpd 151 - En2], the figure is 1 to 20 µM; as for `COc1ccc2nn(C)c(C(=O)NC(C)(CO)C(N)=O)c2c1` (single isomer, unassigned) [Cpd 172 - En1], greater than 20 µM.
Under `Cn1nc2ccc(OCC3CC3)cc2c1C(=O)NC(C)(C)C(N)=O` [Cpd 134, 2-{[5-(cyclopropylmethoxy)-2-methyl-2H-indazol-3-yl]formamido}-2-methylpropanamide] stands 1 to 20 µM.
The compound `Cn1nc2ccc(OCc3ccccc3C(F)F)cc2c1C(=O)NC1(C(N)=O)CCOC1` (single isomer, unassigned) [Cpd 175 - En1] registered an IC50 of less than 1 µM.
As for `Cn1nc2ccc(OCc3ccccn3)cc2c1C(=O)NC1CCOCC1` [Cpd 102, 2-methyl-N-(oxan-4-yl)-5-[(pyridin-2-yl)methoxy]-2H-indazole-3-carboxamide], the figure is greater than 20 µM.
`Cc1ncsc1COc1ccc2nn(C)c(C(=O)O)c2c1` [Cpd 199, 2-methyl-5-[(4-methyl-1,3-thiazol-5-yl)methoxy]-2H-indazole-3-carboxylic acid]: the IC50 is greater than 20 µM.
`O=C1c2c3cc(OCc4ccccc4F)ccc3nn2CCN1CCO` [Cpd 261, 9-[(2-fluorophenyl)methoxy]-2-(2-hydroxyethyl)-1H,2H,3H,4H-pyrazino[1,2-b]indazol-1-one] gave an IC50 of 1 to 20 µM.
For the compound `Cc1ncsc1COc1ccc2nn(C)c(C(=O)NC(C)(CO)CO)c2c1` [Cpd 021, N-(1,3-dihydroxy-2-methylpropan-2-yl)-2-methyl-5-[(4-methyl-1,3-thiazol-5-yl)methoxy]-2H-indazole-3-carboxamide], the IC50 was less than 1 µM.
Under `Cn1nc2ccc(OCc3ccccc3)cc2c1C(=O)NC1CNCC1(F)F` (single isomer, unassigned) [Cpd 002 - En2, 5-(benzyloxy)-N-(4,4-difluoropyrrolidin-3-yl)-2-methyl-2H-indazole-3-carboxamide] stands 1 to 20 µM.
